Test [1] concerns the target T1, FLK-1 receptor (Mus musculus, UniProt P35918).
T1 construct: expressed in transfected cells; host or cells: NIH3T3 C7 #3
Kind of test: FLK-1 ELISA in FLK-1/NIH3T3 cells. The test is classed as cell-based. (In general: ELISA stands for enzyme-linked immunosorbent assay.)

Test [2] relates to HUV-EC-C cells. Kind of test: HUV-EC-C assay, a-FGF (ECGF)-induced [3H]thymidine incorporation. As to conditions: a-FGF-stimulated HUV-EC cells; read-out: Mitogenesis in Endothelial Cells, [3H] Thymidine Incorporation, HUV-EC Assay, a-FGF. It is filed as cell-based, human. In general terms: Incorporation of labelled thymidine or its analogues reports DNA synthesis.
Experimental: (§1) Repeat the wash two more times with D-PBS, resuspend the cells in about 1 ml assay medium/15 cm^2 of tissue culture flask.
(§2) Add cells to 96-well flat-bottom plates at 100 μl/well or 0.8-1.0×10^4 cells/well; incubate ˜24 h at 37° C., 5% CO2.
(§3) Use the same assay medium as mentioned in day 0, step 2 above. Titrations are made by adding 90 μl/well of drug at 200 μM (4× the final well concentration) to the top well of a particular plate column. Since the stock drug concentration-is usually 20 mM in DMSO, the 200 μM drug concentration contains 2% DMSO.
(§4) Therefore, diluent made up to 2% DMSO in assay medium (F12K+0.5% fetal bovine serum) is used as diluent for the drug titrations in order to dilute the drug but keep the DMSO concentration constant. Add this diluent to the remaining wells in the column at 60 μl/well. Take 60 μl from the 120 μl of 200 μM drug dilution in the top well of the column and mix with the 60 μl in the second well of the column. Take 60 μl from this well and mix with the 60 μl in the third well of the column, and so on until two-fold titrations-are completed. When the next-to-the-last well is mixed, take 60 μl of the 120 μl in this well and discard it. Leave the last well with 60 μl of DMSO/media diluent as a non-drug-containing control. […] 9 columns of titrated drug, enough for triplicate wells each for 1) VEGF (obtained from Pepro Tech Inc., catalogue no. 100-200, 2) endothelial cell growth factor (ECGF) (also known as acidic fibroblast growth factor, or aFGF) (obtained from Boehringer Mannheim Biochemica, catalogue no. […] ECGF comes as a preparation with sodium heparin.
(§5) Transfer 50 μl/well of the drug dilutions to the 96-well assay plates containing the 0.8-1.0×10^4 cells/100 μl/well of the HUV-EC-C cells from day 0 and incubate ˜2 h at 37° C., 5% CO2.
(§6) In triplicate, add 50 μl/well of 80 μg/ml VEGF, 20 ng/ml ECGF, or media control to each drug condition. As with the drugs, the growth factor concentrations are 4× the desired final concentration. Use the assay media from day 0 step 2 to make the concentrations of growth factors.
Freeze plates overnight at −20° C.
Test [3] concerns HUV-EC-C cells. In words: HUV-EC-C assay, VEGF-induced [3H]thymidine incorporation. As to conditions: VEGF-stimulated HUV-EC cells; read-out: Mitogenesis in Endothelial Cells, [3H] Thymidine Incorporation, HUV-EC Assay, VEGF. It is filed as cell-based, human.
Experimental: as §1, §2, §3, §4, §5, §6
Freeze plates overnight at −20° C.
The target of test [4] is T2, EGFR (Homo sapiens, UniProt P00533).
T2 construct: expressed in transfected cells; host or cells: NIH 3T3/C7 (3T3/EGFRc7)
In words: EGF-Induced BrdU Incorporation Assay in 3T3/EGFR cells. It is filed as cell-based. Conditions: EGF ligand; read-out: Mitogenesis in 3T3/EGFR Cells, BrdU Incorporation, EGFR EGF Ligand IC50.
Experimental: Assay 2: EGF-Induced BrdU Incorporation Assay
Protocol • (1) 3T3 engineered cell line: 3T3/EGFRc7 • (2) Cells are seeded at 8000 cells/well in 10% CS, 2 mM Gln in DMEM, in a 96 well plate. […] The negative control wells receive serum free DMEM with 0.1% BSA only; the positive control cells receive the ligand (EGF) but no test compound. […] FixDenat solution is added (50 μl/well) and the plates are incubated at room temperature for 45 minutes on a plate shaker. • (7) The FixDenat solution is thoroughly removed by decanting and tapping the inverted plate on a paper towel. Milk is added (5% dehydrated milk in PBS, 200 μl/well) as a blocking solution and the plate is incubated for 30 minutes at room temperature on a plate shaker. • (8) The blocking solution is removed by decanting and the wells are washed once with PBS. Anti-BrdU-POD solution (1:100 dilution in PBS, 1% BSA) is added (100 μl/well) and the plate is incubated for 90 minutes at room temperature on a plate shaker. • (9) The antibody conjugate is thoroughly removed by decanting and rinsing the wells 5 times with PBS, and the plate is dried by inverting and tapping on a paper towel. • (10) TMB substrate solution is added (100 μl/well) and incubated for 20 minutes at room temperature on a plate shaker until color development is sufficient for photometric detection. • (11) The absorbance of the samples are measured at 410 nm (in “dual wavelength” mode with a filter reading at 490 nm, as a reference wavelength) on a Dynatech ELISA plate reader.

[5] abbreviates: ELISA, FLK-1/NIH3T3 cells, VEGF stimulated.

These results are taken from patent US6906093B2, “Indolinone combinatorial libraries and related products and methods for the treatment of disease” (Sugen, Inc., priority 1995, dated 2005).

Like-named read-outs stand apart in the source and are kept apart here.

T1 sequence (P35918 20-1345): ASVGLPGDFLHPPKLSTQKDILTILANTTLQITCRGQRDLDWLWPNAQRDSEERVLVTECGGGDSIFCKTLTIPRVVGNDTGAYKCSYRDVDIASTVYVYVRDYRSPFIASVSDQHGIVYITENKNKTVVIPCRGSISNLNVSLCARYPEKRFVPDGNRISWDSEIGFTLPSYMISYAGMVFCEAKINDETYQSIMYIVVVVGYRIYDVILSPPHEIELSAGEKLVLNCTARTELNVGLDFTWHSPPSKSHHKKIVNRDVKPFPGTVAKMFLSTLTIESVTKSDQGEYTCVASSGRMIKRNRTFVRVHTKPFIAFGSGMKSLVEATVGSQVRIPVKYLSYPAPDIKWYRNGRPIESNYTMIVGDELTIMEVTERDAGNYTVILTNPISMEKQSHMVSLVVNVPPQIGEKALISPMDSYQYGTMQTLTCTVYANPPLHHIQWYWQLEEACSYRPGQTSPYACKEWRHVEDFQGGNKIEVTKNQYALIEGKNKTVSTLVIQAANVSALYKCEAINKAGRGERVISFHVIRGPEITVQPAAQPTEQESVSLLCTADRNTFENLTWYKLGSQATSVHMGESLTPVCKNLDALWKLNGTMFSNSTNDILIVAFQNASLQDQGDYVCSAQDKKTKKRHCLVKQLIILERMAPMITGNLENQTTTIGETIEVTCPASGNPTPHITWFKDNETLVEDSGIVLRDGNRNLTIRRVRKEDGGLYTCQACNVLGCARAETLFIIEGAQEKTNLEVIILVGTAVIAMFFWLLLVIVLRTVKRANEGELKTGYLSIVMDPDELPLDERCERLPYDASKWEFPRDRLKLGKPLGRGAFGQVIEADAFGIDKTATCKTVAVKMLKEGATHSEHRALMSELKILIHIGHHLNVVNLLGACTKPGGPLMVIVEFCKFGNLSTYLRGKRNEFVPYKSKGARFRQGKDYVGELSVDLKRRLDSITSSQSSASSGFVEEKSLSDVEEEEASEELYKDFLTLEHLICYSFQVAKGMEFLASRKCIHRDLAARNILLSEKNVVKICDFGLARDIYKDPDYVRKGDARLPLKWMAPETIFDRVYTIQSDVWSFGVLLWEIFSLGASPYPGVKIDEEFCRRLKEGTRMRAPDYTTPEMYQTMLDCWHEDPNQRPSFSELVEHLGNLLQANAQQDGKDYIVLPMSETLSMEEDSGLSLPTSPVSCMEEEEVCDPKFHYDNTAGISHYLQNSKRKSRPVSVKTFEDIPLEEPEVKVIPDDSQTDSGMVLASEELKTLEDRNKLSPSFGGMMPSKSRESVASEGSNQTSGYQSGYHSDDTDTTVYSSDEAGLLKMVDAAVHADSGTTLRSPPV
T2 sequence (P00533 25-1210): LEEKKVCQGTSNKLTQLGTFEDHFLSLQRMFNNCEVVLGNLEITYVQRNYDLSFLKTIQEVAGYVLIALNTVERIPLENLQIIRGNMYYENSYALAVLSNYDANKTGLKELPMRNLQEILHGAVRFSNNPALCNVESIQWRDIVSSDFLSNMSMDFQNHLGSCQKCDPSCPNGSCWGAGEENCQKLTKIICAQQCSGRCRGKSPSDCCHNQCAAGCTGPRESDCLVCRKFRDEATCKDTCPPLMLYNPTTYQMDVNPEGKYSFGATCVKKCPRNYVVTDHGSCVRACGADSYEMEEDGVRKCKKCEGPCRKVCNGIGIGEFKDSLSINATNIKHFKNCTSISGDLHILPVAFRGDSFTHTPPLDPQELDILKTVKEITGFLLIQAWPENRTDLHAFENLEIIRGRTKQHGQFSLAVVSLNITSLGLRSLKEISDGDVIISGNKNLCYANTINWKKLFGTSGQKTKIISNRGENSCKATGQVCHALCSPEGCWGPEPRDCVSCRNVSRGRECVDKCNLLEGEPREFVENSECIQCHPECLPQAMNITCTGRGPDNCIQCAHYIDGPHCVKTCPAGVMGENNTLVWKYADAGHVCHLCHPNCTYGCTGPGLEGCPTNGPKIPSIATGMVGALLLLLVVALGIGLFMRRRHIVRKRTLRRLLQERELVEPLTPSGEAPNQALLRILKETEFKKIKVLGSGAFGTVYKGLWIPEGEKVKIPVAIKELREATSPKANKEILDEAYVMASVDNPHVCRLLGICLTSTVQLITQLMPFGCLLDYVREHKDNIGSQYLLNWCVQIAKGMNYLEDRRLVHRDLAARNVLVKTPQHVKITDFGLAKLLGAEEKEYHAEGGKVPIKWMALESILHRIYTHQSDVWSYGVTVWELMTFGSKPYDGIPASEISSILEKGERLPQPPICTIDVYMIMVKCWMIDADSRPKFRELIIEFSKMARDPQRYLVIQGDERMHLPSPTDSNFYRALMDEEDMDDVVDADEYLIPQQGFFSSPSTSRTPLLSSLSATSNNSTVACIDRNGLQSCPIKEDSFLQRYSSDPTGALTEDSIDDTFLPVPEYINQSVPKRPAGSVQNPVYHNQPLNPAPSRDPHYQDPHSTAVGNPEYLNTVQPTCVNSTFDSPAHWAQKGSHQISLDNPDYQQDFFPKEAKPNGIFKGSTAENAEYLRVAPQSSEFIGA

In test [1], “3-[(2-Sulphonylfuran-5-yl)methylene]-2-indolinone sodium salt [SU5428]” displayed an IC50 of 8.6 µM. Compound `CN(C)c1ccc(C=C2C(=O)Nc3ccccc32)cc1` [SU4312, 3-(4-Dimethylaminobenzylidenyl)-2-indolinone] showed an IC50 in test [1] (setting [5]) of 0.8 µM. The same measure, in the same setting: then `COc1ccc(OC)c(C=C2C(=O)Nc3ccccc32)c1` [SU4793, 3-(2,5-Dimethoxybenzylidenyl)-2-indolinone], with 4.2 µM; and `COc1cccc(C=C2C(=O)Nc3ccccc32)c1OC` [SU4794, 3-(2,3-dimethoxybenzylidenyl)-2-indolinone], with 11.8 µM. Regarding `COc1ccc(Br)cc1C=C1C(=O)Nc2ccccc21` [SU4796, 3-(3-bromo-6-methoxybenzylidenyl)-2-indolinone], the IC50 worked out at 35.8 µM in test [2] and 30.7 µM in test [3]. `O=C1Nc2ccccc2C1=Cc1ccco1` [SU4798, 3-[(furan-2-yl)methylene]-2-indolinone] yielded an IC50 in test [1] (setting [5]) of 28.8 µM.

`CC(=O)Nc1ccc(C=C2C(=O)Nc3ccccc32)cc1` [SU4799, 3-(4-acetamidobenzylidenyl)-2-indolinone] had an IC50 in test [1] (setting [5]) of 9 µM.

For the compound `O=C1Nc2ccccc2C1=Cc1ccc(O)cc1Cl` [SU4932, 3-(2-chloro-4-hydroxybenzylidenyl)-2-indolinone], the IC50 in test [1] (setting [5]) was 2.2 µM. `CC(=O)Nc1ccc(C=C2C(=O)Nc3ccccc32)cc1` [SU4944, 3-(4-Acetylaminobenzylidenyl)-2-indolinone] showed an IC50 in test [1] (setting [5]) of 8.5 µM.

Consider `COc1ccccc1C=C1C(=O)Nc2ccccc21` [SU4949, 3-(2-Methoxybenzylidenyl)-2-indolinone], for which the IC50 worked out at 3.7 µM in test [2] and 3.4 µM in test [3]. `CN(C)c1ccc(C=C2C(=O)N(C)c3ccccc32)cc1` [SU4952, 3-(4-Dimethylaminobenzylidenyl)-1-methyl-2-indolinone]: in test [1] (setting [5]), the IC50 amounted to 22.6 µM. On to `CN(C)c1ccc(C=C2C(=O)Nc3ccc(Cl)cc32)cc1` [SU4967, 5-Chloro-3-(4-dimethylaminobenzylidenyl)-2-indolinone], for which the IC50 in test [4] was 60 µM; in test [1] (setting [5]) it was 11.2 µM.

On to `O=C1Nc2ccc(Cl)cc2C1=Cc1ccc(Br)cc1` [SU4972, 3-(4-Bromobenzylidenyl)-5-chloro-2-indolinone], for which, in test [2], the IC50 was found to be 1.4 µM. For `CCCCN(CCCC)c1ccc(C=C2C(=O)Nc3ccccc32)cc1` [SU4979, 3-(4-Di-n-butylaminobenzylidenyl)-2-indolinone], the IC50 in test [1] (setting [5]) came out at 20.9 µM. As for `O=C1Nc2ccccc2C1=Cc1ccc(N2CCOCC2)cc1` [SU4981, 3-[4-(Morpholin-4-yl)benzylidenyl]-2-indolinone], the values for the IC50 in test [4] and in test [1] (setting [5]) were 20 µM and 2.1 µM, respectively.

For the compound `O=C1Nc2ccc(Cl)cc2C1=Cc1ccc(N2CCOCC2)cc1` [SU4983, 5-Chloro-3-(4-(morpholine-4-yl)benzylidenyl)-2-indolinone], the IC50 in test [1] (setting [5]) was determined as 4.1 µM. Consider `O=C1Nc2ccccc2C1=Cc1ccc(Cl)c(Cl)c1` [SU5201, 3-(3,4-Dichlorobenzylidenyl)-2-indolinone], for which the values for the IC50 in test [2] and in test [3] were 2.3 µM and 2.5 µM, respectively.

For `CCOc1ccccc1C=C1C(=O)Nc2ccccc21` [SU5204, 3-(2-Ethoxybenzylidenyl]-2-indolinone], the IC50 in test [1] (setting [5]) is 4 µM.

As for `O=C1Nc2ccccc2C1=Cc1ccc(F)cc1` [SU5205, 3-(4-Fluorobenzylidenyl)-2-indolinone], the IC50 in test [1] (setting [5]) was 9.6 µM.

The compound `O=C1Nc2ccccc2C1=Cc1cccs1` [SU5208, 3-[(Thien-2-yl)methylene]-2-indolinone] gave an IC50 in test [1] (setting [5]) of 4.7 µM. Turning to `O=C1Nc2ccccc2C1=Cc1ccc(-c2cc(C(F)(F)F)cc(C(F)(F)F)c2)o1` [SU5217], the IC50 in test [2] came to 10.5 µM; in test [3], 9.6 µM. `Cc1csc(C=C2C(=O)Nc3ccccc32)c1` [SU5401, 3-[(4-Methylthien-2-yl)methylene]-2-indolinone] yielded an IC50 in test [1] (setting [5]) of 2.9 µM.

In test [1] (setting [5]), `Cc1c(CCC(=O)O)c[nH]c1C=C1C(=O)Nc2ccccc21` [SU5402, 3-[(3-(2-carboxyethyl)-4-methylpyrrol-5-yl)methylene]-2-indolinone] showed an IC50 of 0.4 µM.

Compound `Cc1[nH]c(C=C2C(=O)Nc3ccccc32)c(Br)c1Br` [SU5403, 3-[(3,4-Dibromo-5-methylpyrrol-2-yl)methylene]-2-indolinone] came in with an IC50 in test [1] (setting [5]) of 1.8 µM. In test [1] (setting [5]), `Cc1cc[nH]c1C=C1C(=O)Nc2ccccc21` [SU5404, 3-[(3-Methylpyrrol-2-yl)methylene]-2-indolinone] yielded an IC50 of 0.24 µM. Still for that read-out and setting: for `Cc1c(C=O)[nH]c(C=C2C(=O)Nc3ccccc32)c1C` [SU5405, 3-[(3,4-Dimethyl-2-formylpyrrole-5-yl)methylene)-2-indolinone] the value was 23.8 µM. The same measure, in the same setting: then `Cc1c[nH]c(C=C2C(=O)Nc3ccccc32)c1C` [SU5406, 3-[(3,4-Dimethylpyrrol-2-yl)methylene]-2-indolinone], with 0.17 µM. Regarding `COC(=O)CCc1c(C)c[nH]c1C=C1C(=O)Nc2ccccc21` [SU5407, 3-{[4-(2-methoxycarbonylethyl)-3-methylpyrrol-5-yl]methylene}-2-indolinone], the IC50 worked out at 100 µM in test [4] and 1.1 µM in test [1] (setting [5]). `CCOC(=O)c1c(C)[nH]c(C=C2C(=O)Nc3ccccc32)c1C` [SU5408, 3-[(2,4-Dimethyl-3-ethoxycarbonylpyrrol-5-yl)methylene]-2-indolinone] displayed an IC50 in test [1] (setting [5]) of 0.07 µM.

Regarding `O=C1Nc2ccccc2C1=Cc1ccc(I)o1` [SU5409], in test [3], the IC50 worked out at 26 µM. As for `O=C1Nc2ccccc2C1=Cc1sccc1Br` [SU5418, 3-[(3-Bromothiene-2-yl)methylene]-2-indolinone], the IC50 in test [1] (setting [5]) stood at 15.4 µM. Same read-out and setting: then `CSc1ccc(C=C2C(=O)Nc3ccccc32)s1` [SU5419, 3-[(2-Methylmercaptothien-5-yl)methylene]-2-indolinone], with 2.3 µM. For `Cc1cc(C=C2C(=O)Nc3ccccc32)oc1C` [SU5421, 3-[(2,3-Dimethylfuran-5-yl)methylene]-2-indolinone], the IC50 in test [1] (setting [5]) turned out to be 4.6 µM. Same read-out and setting: for `Cc1ccc(C=C2C(=O)Nc3ccccc32)s1` [SU5424, 3-[(2-Methylthien-5-yl)methylene]-2-indolinone] the value was 2.4 µM; for `O=C1Nc2ccccc2C1=Cc1ccc(Br)s1` [SU5425, 3-[(2-Bromothiene-5-yl)methylene]-2-indolinone], 51.4 µM. On the same count and under the same terms, for `Cc1ccsc1C=C1C(=O)Nc2ccccc21` [SU5427, 3-[(3-Methylthien-2-yl)methylene]-2-indolinone] the value was 4.5 µM. Same read-out and setting: for `Cc1ccc(C=C2C(=O)Nc3ccccc32)o1` [SU5430, 3-[(2-Methylfuran-5-yl)methylene]-2-indolinone] the value was 73.4 µM; for `CCc1ccc(C=C2C(=O)Nc3ccccc32)o1` [SU5431], 41.2 µM; for `O=C1Nc2ccccc2C1=Cc1ccc([N+](=O)[O-])o1` [SU5432, 3-[(2-Nitrofuran-5-yl)methylene]-2-indolinone], 22.8 µM. With `CCc1c(C=C2C(=O)Nc3ccccc32)[nH]c(C)c1C` [SU5453, 3-[(4,5-Dimethyl-3-ethylpyrrol-2-yl)methylene]-2-indolinone], the IC50 in test [1] (setting [5]) was found to be 0.14 µM.

`CCc1c(C=C2C(=O)Nc3ccccc32)[nH]c(C(=O)O)c1C` [SU5455, 3-[(5-Carboxy-3-ethyl-4-methylpyrrol-2-yl)methylene]-2-indolinone] showed an IC50 in test [1] (setting [5]) of 36.2 µM. Consider `O=C1Nc2ccccc2C1=Cc1cccn1-c1ccc(Cl)cc1` [SU5462], for which the IC50 in test [2] amounted to 0.8 µM; in test [3], 0.5 µM.

As to `CCOC(=O)c1c[nH]c(C=C2C(=O)Nc3ccccc32)c1C` [SU5463], the results for the IC50 in test [4] and in test [1] (setting [5]) were 23 µM and 0.18 µM, respectively. With `Cn1cccc1C=C1C(=O)Nc2ccccc21` [SU5464, 3-[(1-Methylpyrrol-2-yl)methylene]-2-indolinone], the IC50 in test [4] turned out to be 95 µM; in test [1] (setting [5]) it was 20.3 µM. `CCOC(=O)CCc1c(C=C2C(=O)Nc3ccccc32)[nH]c(C(=O)OCC)c1CC(=O)OCC` [SU5465, 3-[(5-Ethoxycarbonyl-3-ethoxycarbonylethyl-4-ethoxylcarbonylmethylpyrrol-2-yl)methylene]-2-indolinone]: in test [4], the IC50 worked out at 50 µM.

In the case of `O=C1Nc2ccccc2C1=Cc1ccc(N2CCCC2)cc1` [SU5466, 3-[4-(Pyrrolidin-1-yl)benzylidenyl]-2-indolinone], the IC50 came to 17 µM in test [4] and 1.6 µM in test [1] (setting [5]).

Regarding `Cc1cnc(C=C2C(=O)Nc3ccccc32)[nH]1` [SU5468, 3-[(5-Methylimidazol-2-yl)methylene]-2-indolinone], the IC50 in test [1] (setting [5]) amounted to 2.7 µM. For `Cc1cnc(C=C2C(=O)Nc3ccccc32)s1` [SU5469, 3-[(5-Methylthiazol-2-yl)methylene]-2-indolinone], the IC50 in test [4] came out at 28 µM. The compound `Cc1cc(C=C2C(=O)Nc3ccccc32)[nH]n1` [SU5472, 3-[(3-Methylpyrazol-5-yl)methylene]-2-indolinone] gave an IC50 in test [1] (setting [5]) of 8.7 µM.

For `O=C1Nc2ccccc2C1=Cc1n[nH]cc1Cl` [SU5474, 3-[(4-Chloropyrazol-3-yl)methylene]-2-indolinone], the IC50 in test [1] (setting [5]) turned out to be 7.4 µM. For `O=C1Nc2ccccc2C1=Cc1c(Br)cnn1Cc1ccc(Cl)cc1` [SU5475, 3-[(4-Bromo-1-(4-chlorobenzyl)pyrazol-5-yl)methylene]-2-indolinone], in test [4], the IC50 is 48 µM. As to `CCc1c(C)[nH]c(C=C2C(=O)Nc3ccccc32)c1C` [SU5477, 3-[(4-Ethyl-3,5-dimethylpyrrol-2-yl)methylene]-2-indolinone], the IC50 in test [1] (setting [5]) amounted to 0.15 µM.
